Assay results from patent publication US5500410A, “Substituted alkylamide derivatives of teicoplanin” (Gruppo Lepetit S.p.A., priority 1989, dated 1996).

Columns and labels:
Strep. pyogenes C 203 = experiment: In vivo test in mice septicemically infected with Strep. pyogenes C 203; settings: Strep. pyogenes C 203 septicemia
Excerpt: The ED50 values (mg/kg) of representative compounds of the invention in in vivo tests in mice septicemically infected with Strep. pyogenes. C 203, obtained according to the procedure described by V. Arioli et al. (Journal of Antibiotics 29, 511; 1976) are given in table III.

[1] = tested on: Escherichia coli SKF 12140; experiment: In vitro MIC, two-fold dilution in microtiter; assay type: cell-based; settings: 18-24 h at 37° C., inoculum about 10^4 CFU/ml
Method: (§1) Broth cultures are diluted enough so that the final inecuium is about 10^4 colony forming units/ml (CFU/ml).

[2] = tested on: Proteus vulgaris X19H ATCC 881; experiment: In vitro MIC, two-fold dilution in microtiter; assay type: cell-based; settings: 18-24 h at 37° C., inoculum about 10^4 CFU/ml
Method: as §1

[3] = tested on: Pseudomonas aeruginosa ATCC 10145; experiment: In vitro MIC, two-fold dilution in microtiter; assay type: cell-based; settings: 18-24 h at 37° C., inoculum about 10^4 CFU/ml
Method: as §1

[4] = tested on: Staphylococcus aureus TOUR; experiment: In vitro MIC, two-fold dilution in microtiter; assay type: cell-based; settings: 18-24 h at 37° C., inoculum about 10^4 CFU/ml
Method: as §1

[5] = tested on: Staphylococcus epidermidis ATCC 12228; experiment: In vitro MIC, two-fold dilution in microtiter; assay type: cell-based; settings: 18-24 h at 37° C., inoculum about 10^4 CFU/ml
Method: as §1

[6] = tested on: Staphylococcus haemolyticus L 602; experiment: In vitro MIC, two-fold dilution in microtiter; assay type: cell-based; settings: 18-24 h at 37° C., inoculum about 10^4 CFU/ml
Method: as §1

[7] = tested on: Streptococcus faecalis ATCC 7080; experiment: In vitro MIC, two-fold dilution in microtiter; assay type: cell-based; settings: 18-24 h at 37° C., inoculum about 10^4 CFU/ml
Method: as §1

[8] = tested on: Streptococcus pneumoniae UC 41; experiment: In vitro MIC, two-fold dilution in microtiter; assay type: cell-based; settings: 18-24 h at 37° C., inoculum about 10^4 CFU/ml
Method: as §1

[9] = tested on: Streptococcus pyogenes C 203; experiment: In vitro MIC, two-fold dilution in microtiter; assay type: cell-based; settings: 18-24 h at 37° C., inoculum about 10^4 CFU/ml
Method: as §1

[10] = tested on: Pseudomonas aeruginosa Strain No. L 1138; experiment: MIC against multi-resistant clinical isolates of Pseudomonas aeruginosa; assay type: cell-based; settings: multi-resistant clinical isolate
Method: as §1
(§2) The activity against some multi-resistant clinical isolates of Pseudomonas aeruginosa of compounds 22, 23, 25, 26, 27 and 29 is shown in Table II.

[11] = tested on: Pseudomonas aeruginosa Strain No. L 1348; experiment: as above; assay type: cell-based; settings: multi-resistant clinical isolate
Method: as §1, §2

[12] = tested on: Pseudomonas aeruginosa Strain No. L 1498; experiment: as above; assay type: cell-based; settings: multi-resistant clinical isolate
Method: as §1, §2

[13] = tested on: Pseudomonas aeruginosa Strain No. L 1533; experiment: as above; assay type: cell-based; settings: multi-resistant clinical isolate
Method: as §1, §2

Structure (SMILES): CC(=O)N[C@H]1[C@H](OC2c3ccc(c(Cl)c3)Oc3cc4cc(c3O[C@@H]3O[C@H](CO)[C@@H](O)[C@H](O)[C@H]3NC(=O)CCCCCCC(C)C)Oc3ccc(cc3Cl)CC3NC(=O)C(N)c5ccc(O)c(c5)Oc5cc(O)cc(c5)C(NC3=O)C(=O)NC4C(=O)NC3C(=O)NC2C(=O)NC(C(=O)NCCNCCN)c2cc(O)cc(O[C@H]4O[C@H](CO)[C@@H](O)[C@H](O)[C@@H]4O)c2-c2cc3ccc2O)O[C@H](CO)[C@@H](O)[C@@H]1O (some centres unmarked) [Compound 2]
- ED50 p.o. (Strep. pyogenes C 203): about 60 mg/kg
- ED50 s.c. (Strep. pyogenes C 203): 0.09 mg/kg

Structure (SMILES): CC(=O)NC1C(OC2c3ccc(c(Cl)c3)Oc3cc4cc(c3OC3OC(CO)C(O)C(O)C3NC(=O)CCCCCCC(C)C)Oc3ccc(cc3Cl)CC3NC(=O)C(N)c5ccc(O)c(c5)Oc5cc(O)cc(c5)C(NC3=O)C(=O)NC4C(=O)NC3C(=O)NC2C(=O)NC(C(=O)NCCCNCCCNCCCN)c2cc(O)cc(OC4OC(CO)C(O)C(O)C4O)c2-c2cc3ccc2O)OC(CO)C(O)C1O (centres unmarked) [Compound 9]
- MIC Escherichia coli SKF 12140 [1]: > 128 microgram/ml
- MIC Proteus vulgaris X19H ATCC 881 [2]: > 128 microgram/ml
- MIC Pseudomonas aeruginosa ATCC 10145 [3]: 64 microgram/ml
- MIC Staphylococcus aureus TOUR [4]: 0.12 microgram/ml
- MIC Staphylococcus epidermidis ATCC 12228 [5]: 0.06 microgram/ml
- MIC Staphylococcus haemolyticus L 602 [6]: 0.12 microgram/ml
- MIC Streptococcus faecalis ATCC 7080 [7]: 0.12 microgram/ml
- MIC Streptococcus pneumoniae UC 41 [8]: 0.12 microgram/ml
- MIC Streptococcus pyogenes C 203 [9]: 0.06 microgram/ml
- ED50 p.o. (Strep. pyogenes C 203): about 80 mg/kg
- ED50 s.c. (Strep. pyogenes C 203): 0.06 mg/kg

Structure (SMILES): CC(=O)NC1C(OC2c3ccc(c(Cl)c3)Oc3cc4cc(c3OC3OC(CO)C(O)C(O)C3NC(=O)CCCCCCC(C)C)Oc3ccc(cc3Cl)CC3NC(=O)C(N)c5ccc(O)c(c5)Oc5cc(O)cc(c5)C(NC3=O)C(=O)NC4C(=O)NC3C(=O)NC2C(=O)NC(C(=O)NCCCNCCCCNCCCN)c2cc(O)cc(OC4OC(CO)C(O)C(O)C4O)c2-c2cc3ccc2O)OC(CO)C(O)C1O (centres unmarked) [Compound 11]
- MIC Escherichia coli SKF 12140 [1]: 64 microgram/ml
- MIC Proteus vulgaris X19H ATCC 881 [2]: 128 microgram/ml
- MIC Pseudomonas aeruginosa ATCC 10145 [3]: 32 microgram/ml
- MIC Staphylococcus aureus TOUR [4]: 0.12 microgram/ml
- MIC Staphylococcus epidermidis ATCC 12228 [5]: 0.06 microgram/ml
- MIC Staphylococcus haemolyticus L 602 [6]: 0.12 microgram/ml
- MIC Streptococcus faecalis ATCC 7080 [7]: 0.12 microgram/ml
- MIC Streptococcus pneumoniae UC 41 [8]: 0.12 microgram/ml
- MIC Streptococcus pyogenes C 203 [9]: 0.06 microgram/ml
- ED50 p.o. (Strep. pyogenes C 203): 81.2 mg/kg
- ED50 s.c. (Strep. pyogenes C 203): 0.03 mg/kg

Structure (SMILES): NCCCNCCCNC(=O)C1NC(=O)C2NC(=O)C(NC(=O)C3NC(=O)C4NC(=O)C(Cc5ccc(c(Cl)c5)Oc5cc3cc(c5O)Oc3ccc(cc3Cl)C2O)NC(=O)C(N)c2ccc(O)c(c2)Oc2cc(O)cc4c2)c2ccc(O)c(c2)-c2c(O)cc(O)cc21 (centres unmarked) [Compound 22]
- MIC Escherichia coli SKF 12140 [1]: 1 microgram/ml
- MIC Proteus vulgaris X19H ATCC 881 [2]: 32 microgram/ml
- MIC Pseudomonas aeruginosa ATCC 10145 [3]: 8 microgram/ml
- MIC Staphylococcus aureus TOUR [4]: 0.06 microgram/ml
- MIC Staphylococcus epidermidis ATCC 12228 [5]: 0.03 microgram/ml
- MIC Staphylococcus haemolyticus L 602 [6]: 0.12 microgram/ml
- MIC Streptococcus faecalis ATCC 7080 [7]: 0.12 microgram/ml
- MIC Streptococcus pneumoniae UC 41 [8]: 0.12 microgram/ml
- MIC Streptococcus pyogenes C 203 [9]: 0.12 microgram/ml
- MIC Pseudomonas aeruginosa L 1138 [10]: 64 microgram/ml
- MIC Pseudomonas aeruginosa L 1348 [11]: 4 microgram/ml
- MIC Pseudomonas aeruginosa L 1498 [12]: 64 microgram/ml
- MIC Pseudomonas aeruginosa L 1533 [13]: 64 microgram/ml

Structure (SMILES): NCCCNCCNCCCNC(=O)C1NC(=O)C2NC(=O)C(NC(=O)C3NC(=O)C4NC(=O)C(Cc5ccc(c(Cl)c5)Oc5cc3cc(c5O)Oc3ccc(cc3Cl)C2O)NC(=O)C(N)c2ccc(O)c(c2)Oc2cc(O)cc4c2)c2ccc(O)c(c2)-c2c(O)cc(O)cc21 (centres unmarked) [Compound 25]
- MIC Escherichia coli SKF 12140 [1]: 2 microgram/ml
- MIC Proteus vulgaris X19H ATCC 881 [2]: 64 microgram/ml
- MIC Pseudomonas aeruginosa ATCC 10145 [3]: 16 microgram/ml
- MIC Staphylococcus aureus TOUR [4]: 0.12 microgram/ml
- MIC Staphylococcus epidermidis ATCC 12228 [5]: 0.06 microgram/ml
- MIC Staphylococcus haemolyticus L 602 [6]: 0.12 microgram/ml
- MIC Streptococcus faecalis ATCC 7080 [7]: 0.12 microgram/ml
- MIC Streptococcus pneumoniae UC 41 [8]: 0.12 microgram/ml
- MIC Streptococcus pyogenes C 203 [9]: 0.06 microgram/ml
- MIC Pseudomonas aeruginosa L 1138 [10]: 32 microgram/ml
- MIC Pseudomonas aeruginosa L 1348 [11]: 4 microgram/ml
- MIC Pseudomonas aeruginosa L 1498 [12]: 64 microgram/ml
- MIC Pseudomonas aeruginosa L 1533 [13]: 64 microgram/ml

Structure (SMILES): NCCCNCCCNCCCNC(=O)C1NC(=O)C2NC(=O)C(NC(=O)C3NC(=O)C4NC(=O)C(Cc5ccc(c(Cl)c5)Oc5cc3cc(c5O)Oc3ccc(cc3Cl)C2O)NC(=O)C(N)c2ccc(O)c(c2)Oc2cc(O)cc4c2)c2ccc(O)c(c2)-c2c(O)cc(O)cc21 (centres unmarked) [Compound 26]
- MIC Escherichia coli SKF 12140 [1]: 0.5 microgram/ml
- MIC Proteus vulgaris X19H ATCC 881 [2]: 64 microgram/ml
- MIC Pseudomonas aeruginosa ATCC 10145 [3]: 2 microgram/ml
- MIC Staphylococcus aureus TOUR [4]: 0.06 microgram/ml
- MIC Staphylococcus epidermidis ATCC 12228 [5]: 0.016 microgram/ml
- MIC Staphylococcus haemolyticus L 602 [6]: 0.06 microgram/ml
- MIC Streptococcus faecalis ATCC 7080 [7]: 0.25 microgram/ml
- MIC Streptococcus pneumoniae UC 41 [8]: 0.12 microgram/ml
- MIC Streptococcus pyogenes C 203 [9]: 0.06 microgram/ml
- MIC Pseudomonas aeruginosa L 1138 [10]: 32 microgram/ml
- MIC Pseudomonas aeruginosa L 1348 [11]: 4 microgram/ml
- MIC Pseudomonas aeruginosa L 1498 [12]: 64 microgram/ml
- MIC Pseudomonas aeruginosa L 1533 [13]: 64 microgram/ml

Structure (SMILES): NCCCNCCCCNCCCNC(=O)C1NC(=O)C2NC(=O)C(NC(=O)C3NC(=O)C4NC(=O)C(Cc5ccc(c(Cl)c5)Oc5cc3cc(c5O)Oc3ccc(cc3Cl)C2O)NC(=O)C(N)c2ccc(O)c(c2)Oc2cc(O)cc4c2)c2ccc(O)c(c2)-c2c(O)cc(O)cc21 (centres unmarked) [Compound 27]
- MIC Escherichia coli SKF 12140 [1]: 2 microgram/ml
- MIC Proteus vulgaris X19H ATCC 881 [2]: 64 microgram/ml
- MIC Pseudomonas aeruginosa ATCC 10145 [3]: 8 microgram/ml
- MIC Staphylococcus aureus TOUR [4]: 0.06 microgram/ml
- MIC Staphylococcus epidermidis ATCC 12228 [5]: 0.06 microgram/ml
- MIC Staphylococcus haemolyticus L 602 [6]: 0.12 microgram/ml
- MIC Streptococcus faecalis ATCC 7080 [7]: 0.12 microgram/ml
- MIC Streptococcus pneumoniae UC 41 [8]: 0.12 microgram/ml
- MIC Streptococcus pyogenes C 203 [9]: 0.06 microgram/ml
- MIC Pseudomonas aeruginosa L 1138 [10]: 64 microgram/ml
- MIC Pseudomonas aeruginosa L 1348 [11]: 4 microgram/ml
- MIC Pseudomonas aeruginosa L 1498 [12]: 64 microgram/ml
- MIC Pseudomonas aeruginosa L 1533 [13]: 64 microgram/ml

Structure (SMILES): NCCN(CCN)CCNC(=O)C1NC(=O)C2NC(=O)C(NC(=O)C3NC(=O)C4NC(=O)C(Cc5ccc(c(Cl)c5)Oc5cc3cc(c5O)Oc3ccc(cc3Cl)C2O)NC(=O)C(N)c2ccc(O)c(c2)Oc2cc(O)cc4c2)c2ccc(O)c(c2)-c2c(O)cc(O)cc21 (centres unmarked) [Compound 29]
- MIC Escherichia coli SKF 12140 [1]: 1 microgram/ml
- MIC Proteus vulgaris X19H ATCC 881 [2]: 32 microgram/ml
- MIC Pseudomonas aeruginosa ATCC 10145 [3]: 8 microgram/ml
- MIC Staphylococcus aureus TOUR [4]: 0.06 microgram/ml
- MIC Staphylococcus epidermidis ATCC 12228 [5]: 0.016 microgram/ml
- MIC Staphylococcus haemolyticus L 602 [6]: 0.06 microgram/ml
- MIC Streptococcus faecalis ATCC 7080 [7]: 0.12 microgram/ml
- MIC Streptococcus pneumoniae UC 41 [8]: 0.12 microgram/ml
- MIC Streptococcus pyogenes C 203 [9]: 0.06 microgram/ml
- MIC Pseudomonas aeruginosa L 1138 [10]: 64 microgram/ml
- MIC Pseudomonas aeruginosa L 1348 [11]: 8 microgram/ml
- MIC Pseudomonas aeruginosa L 1498 [12]: 64 microgram/ml
- MIC Pseudomonas aeruginosa L 1533 [13]: 128 microgram/ml
